Read-outs that look alike come from different tables or passages of the source.
How the values were obtained:
[1] = tested on: HCV genotype 1a (H77 strain) replicon in HUH-7 cells; experiment: HCV replicon luciferase reporter assay, genotype 1a; format: cell-based; conditions: 3 days incubation, read-out: LE_1a (EC50, range)
Method in brief: (§1)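 Replicon inhibition for both genotypes was measured as Renilla luciferase signal (EnduRen, 7.5 μM final, 2 h) after 3-day, 37° C exposure of replicon-bearing HUH-7 cells in 4% FCS DMEM, 0.5% DMSO. The 1b construct carries S1179I; the 1a H77 construct carries P1496L and S2204I. Twenty-point, 3-fold dilutions were fitted four-parametrically for EC50, and CC50 was taken from multiplexed Cell Titer-Blue.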

[2] = tested on: HCV genotype 1b (Con1) replicon in HUH-7 cells; experiment: HCV replicon luciferase reporter assay, genotype 1b; format: cell-based; conditions: 3 days incubation, read-out: LE_1b (EC50, range)
Method in brief: as §1

[3] = Hepatitis C virus, Huh-7, 72 h, HCV genotype 1a replicon luciferase assay, range class
[4] = Hepatitis C virus, Huh-7, 72 h, HCV genotype 1b replicon luciferase assay, range class
[5] = Hepatitis C virus, Huh-7, 72 h, HCV genotype 1a replicon luciferase
[6] = Hepatitis C virus, Huh-7, 72 h, HCV genotype 1b replicon luciferase
[7] = Hepatitis C virus, GETYPE1A, Huh-7, 72 h, HCV genotype 1a replicon luciferase
[8] = Hepatitis C virus, GETYPE1B, Huh-7, 72 h, HCV genotype 1b replicon luciferase

Molecule | EC50 [1, 3] | EC50 [2, 4] | EC50 [1, 5] | EC50 [2, 6] | further results
COc1cnc(O[C@@H]2C[C@H]3C(=O)N[C@]4(C(=O)NS(=O)(=O)C5(CF)CC5)C[C@H]4/C=C\CC[C@H](C)C[C@@H](C)[C@H](NC(=O)OC4(C5CC5)COC4)C(=O)N3C2)c2ccccc12 [Compound 1059, 3-cyclopropyloxetan-3-yl((2R,6S,7R,9S,13aS,14aR,16aS,Z)-14a-(((1-(fluoromethyl)cyclopropyl)sulfonyl)carbamoyl)-2-((4-methoxyisoquinolin-1-yl)oxy)-7,9-dimethyl-5,16-dioxo-1,2,3,5,6,7,8,9,10,11,13a,14,14a,15,16,16a-hexadecahydrocyclopropa[e]pyrrolo[1,2-a][1,4]diazacyclopentadecin-6-yl)carbamate] | 4.82 to 103 nM | 4.82 to 103 nM | – | – | –
C[C@@H]1CC/C=C\[C@@H]2C[C@@]2(C(=O)NS(=O)(=O)C2CC2)NC(=O)[C@@H]2C[C@@H](Oc3nccc4c5c(ccc34)OC(F)(F)O5)CN2C(=O)[C@@H](NC(=O)OC(C)(C)C(F)(F)F)[C@H](C)C1 [Compound 5268, 1,1,1-trifluoro-2-methylpropan-2-yl((2R,6S,7R,9R,13aS,14aR,16aS,Z)-14a-((cyclopropylsulfonyl)carbamoyl)-2-((2,2-difluoro-[1,3]dioxolo[4,5-f]isoquinolin-6-yl)oxy)-7,9-dimethyl-5,16-dioxo-1,2,3,5,6,7,8,9,10,11,13a,14,14a,15,16,16a-hexadecahydrocyclopropa[e]pyrrolo[1,2-a][1,4]diazacyclopentadecin-6-yl)carbamate] | – | – | < 5.46 nM | < 5.46 nM | –
COc1cc2ccnc(O[C@@H]3C[C@H]4C(=O)N[C@]5(C(=O)NS(=O)(=O)C6(CF)CC6)C[C@H]5/C=C\CC[C@@H](C)C[C@@H](C)[C@H](NC(=O)OC(C)(C)C(F)(F)F)C(=O)N4C3)c2cc1OC [Compound 5381, 1,1,1-trifluoro-2-methylpropan-2-yl((2R,6S,7R,9R,13aS,14aR,16aS,Z)-2-((6,7-dimethoxyisoquinolin-1-yl)oxy)-14a-(((1-(fluoromethyl)cyclopropyl)sulfonyl)carbamoyl)-7,9-dimethyl-5,16-dioxo-1,2,3,5,6,7,8,9,10,11,13a,14,14a,15,16,16a-hexadecahydrocyclopropa[e]pyrrolo[1,2-a][1,4]diazacyclopentadecin-6-yl)carbamate] | – | – | 1.01 to 5 nM | 1.01 to 5 nM | –
COc1cnc(O[C@@H]2C[C@H]3C(=O)N[C@]4(C(=O)NS(=O)(=O)C5(CF)CC5)C[C@H]4/C=C\CC[C@@H](C)C[C@@H](C)[C@H](NC(=O)OC(C)(C)C)C(=O)N3C2)c2ccc(N(C)C)cc12 [Compound 3142, tert-butyl ((2R,6S,7R,9R,13aS,14aR,16aS,Z)-2-((6-(dimethylamino)-4-methoxyisoquinolin-1-yl)oxy)-14a-(((1-(fluoromethyl)cyclopropyl)sulfonyl)carbamoyl)-7,9-dimethyl-5,16-dioxo-1,2,3,5,6,7,8,9,10,11,13a,14,14a,15,16,16a-hexadecahydrocyclopropa[e]pyrrolo[1,2-a][1,4]diazacyclopentadecin-6-yl)carbamate] | < 5.46 nM | < 5.46 nM | – | – | –
COc1cc(F)cc2c(O[C@@H]3C[C@H]4C(=O)N[C@]5(C(=O)NS(=O)(=O)C6CC6)C[C@H]5/C=C\CC[C@H](C)C[C@@H](C)[C@H](NC(=O)O[C@H](C)C(F)(F)F)C(=O)N4C3)nccc12 [Compound 3169, (R)-1,1,1-trifluoropropan-2-yl ((2R,6S,7R,9S,13aS,14aR,16aS,Z)-14a-((cyclopropylsulfonyl)carbamoyl)-2-((7-fluoro-5-methoxyisoquinolin-1-yl)oxy)-7,9-dimethyl-5,16-dioxo-1,2,3,5,6,7,8,9,10,11,13a,14,14a,15,16,16a-hexadecahydrocyclopropa[e]pyrrolo[1,2-a][1,4]diazacyclopentadecin-6-yl)carbamate] | 4.82 to 103 nM | < 5.46 nM | – | – | –
CC[C@@H]1C[C@H](C)CC/C=C\[C@@H]2C[C@@]2(C(=O)NS(=O)(=O)C2(C)CC2)NC(=O)[C@@H]2C[C@@H](Oc3ncc(OC)c4ccc(F)cc34)CN2C(=O)[C@H]1NC(=O)N1CC(C)OC(C)C1 (stereo partly drawn) [Compound 4328, N-((2R,6S,7R,9R,13aS,14aR,16aS,Z)-7-ethyl-2-((7-fluoro-4-methoxyisoquinolin-1-yl)oxy)-9-methyl-14a-(((1-methylcyclopropyl)sulfonyl)carbamoyl)-5,16-dioxo-1,2,3,5,6,7,8,9,10,11,13a,14,14a,15,16,16a-hexadecahydrocyclopropa[e]pyrrolo[1,2-a][1,4]diazacyclopentadecin-6-yl)-2,6-dimethylmorpholine-4-carboxamide] | – | – | 1.01 to 5 nM | 1.01 to 5 nM | –
C[C@@H]1CC/C=C\[C@@H]2C[C@@]2(C(=O)NS(=O)(=O)C2(C)CC2)NC(=O)[C@@H]2C[C@@H](Oc3nccc4c5c(ccc34)N(C)CCO5)CN2C(=O)[C@@H](NC(=O)NC(C)(C)C)[C@H](C)C1 [Compound 5302, (2R,6S,7R,9R,13aS,14aR,16aS,Z)-6-(3-(tert-butyl)ureido)-7,9-dimethyl-2-((4-methyl-3,4-dihydro-2H-[1,4]oxazino[2,3-f]isoquinolin-7-yl)oxy)-N-((1-methylcyclopropyl)sulfonyl)-5,16-dioxo-1,2,3,5,6,7,8,9,10,11,13a,14,14a,15,16,16a-hexadecahydrocyclopropa[e]pyrrolo[1,2-a][1,4]diazacyclopentadecine-14a-carboxamide] | – | – | < 5.46 nM | < 5.46 nM | –
1,1,1-trifluoro-2-methylpropan-2-yl((2R,6S,7R,9R,13aS,14aR,16aS,Z)-14a-((cyclopropylsulfonyl)carbamoyl)-2-((3,7-dimethoxy-2-(trifluoromethyl)quinoxalin-6-yl)oxy)-7-ethyl-9-methyl-5,16-dioxo-1,2,3,5,6,7,8,9,10,11,13a,14,14a,15,16,16a-hexadecahydrocyclopropa[e]pyrrolo[1,2-a][1,4]diazacyclopentadecin-6-yl)carbamate [Compound 4355] | – | – | – | – | EC50 ([1]; HCV genotype 1a replicon luciferase): 5.01 to 35 nM; EC50 ([2]; HCV genotype 1b replicon luciferase): 5.01 to 35 nM
COc1ccc2c(O[C@@H]3C[C@H]4C(=O)N[C@]5(C(=O)NS(=O)(=O)C6CC6)C[C@H]5/C=C\CC[C@@H](C)C[C@@H](C)[C@H](NC(=O)OC(C)(C)C(F)(F)F)C(=O)N4C3)nc(-c3ccc(OC(C)C)cc3)cc2c1 [Compound 4027] | – | – | – | – | EC50 [1, 7]: < 5.46 nM; EC50 [2, 8]: < 5.46 nM
COc1ccc2c(O[C@@H]3C[C@H]4C(=O)N[C@]5(C(=O)NS(=O)(=O)C6(C)CC6)C[C@H]5/C=C\CC[C@H](C)C[C@@H](C)[C@H](NC(=O)OC(C)(C)C)C(=O)N4C3)nc(OC(C)C)cc2c1 [Compound 3195, tert-butyl ((2R,6S,7R,9S,13aS,14aR,16aS,Z)-2-((3-isopropoxy-6-methoxyisoquinolin-1-yl)oxy)-7,9-dimethyl-14a-(((1-methylcyclopropyl)sulfonyl)carbamoyl)-5,16-dioxo-1,2,3,5,6,7,8,9,10,11,13a,14,14a,15,16,16a-hexadecahydrocyclopropa[e]pyrrolo[1,2-a][1,4]diazacyclopentadecin-6-yl)carbamate] | – | – | 1.01 to 5 nM | 0.51 to 1 nM | –
CC(C)n1nc(O[C@@H]2C[C@H]3C(=O)N[C@]4(C(=O)NS(=O)(=O)C5(C)CC5)C[C@H]4/C=C\CC[C@H](C)C[C@@H](C)[C@H](NC(=O)OC(C)(C)C)C(=O)N3C2)c2ccccc2c1=O [Compound 1003, tert-butyl ((2R,6S,7R,9S,13aS,14aR,16aS,Z)-2-((3-isopropyl-4-oxo-3,4-dihydrophthalazin-1-yl)oxy)-7,9-dimethyl-14a-(((1-methylcyclopropyl)sulfonyl)carbamoyl)-5,16-dioxo-1,2,3,5,6,7,8,9,10,11,13a,14,14a,15,16,16a-hexadecahydrocyclopropa[e]pyrrolo[1,2-a][1,4]diazacyclopentadecin-6-yl)carbamate] | > 87.4 nM | > 87.4 nM | – | – | –
COc1ccc2c(O[C@@H]3C[C@H]4C(=O)N[C@]5(C(=O)NS(=O)(=O)C6(CF)CC6)C[C@H]5/C=C\CC[C@@H](C)C[C@@H](C)[C@H](NC(=O)OC(C)(C)C(F)(F)F)C(=O)N4C3)cc(-c3ccc(OC(C)C)cc3)nc2c1 [Compound 4148] | – | – | – | – | EC50 [1, 7]: < 5.46 nM; EC50 [2, 8]: < 5.46 nM
[2H]C([2H])([2H])Oc1cnc(O[C@@H]2C[C@H]3C(=O)N[C@]4(C(=O)NS(=O)(=O)C5(C)CC5)C[C@H]4/C=C\CC[C@@H](C)C[C@@H](C)[C@H](NC(=O)NC(C)(C)C)C(=O)N3C2)c2ccccc12 [Compound 5107, (2R,6S,7R,9R,13aS,14aR,16aS,Z)-6-(3-(tert-butyl)ureido)-7,9-dimethyl-N-((1-methylcyclopropyl)sulfonyl)-5,16-dioxo-2-((4-(trideuteromethoxy)isoquinolin-1-yl)oxy)-1,2,3,5,6,7,8,9,10,11,13a,14,14a,15,16,16a-hexadecahydrocyclopropa[e]pyrrolo[1,2-a][1,4]diazacyclopentadecine-14a-carboxamide] | – | – | < 5.46 nM | < 5.46 nM | –

— patent US9499550B2 (BRISTOL-MYERS SQUIBB COMPANY, priority 2012, dated 2016)
